Test results reported in the supplement of paper PMC11061612.

What was measured:
SF268 (Low Grade Glioma) = assay: Bliss excess, mean over the matrix (fraction); higher = more synergy
Outline: (§1)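 After 24 hours at 37°C and 5% CO2 in 1536-well plates, cells in DMEM/F12 or RPMI plus 10% FBS received two-drug dose matrices for 72 hours. Viability came from CellTiter-Glo 2.0 luminescence and was scaled as inhibition, anchored at 0 by vehicle wells and at 1 by blank wells. Combination Emax is taken as the second-highest inhibition in the matrix, and Bliss excess as the observed combination effect less EA + EB − EA·EB, with EA and EB the single-agent effects.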

[1] = system: FADU (Head and Neck Carcinoma); assay: as above
Outline: as §1

[2] = system: PC-3_[JPC-3] (Lung Adenocarcinoma); assay: as above
Outline: as §1

[3] = system: OAW-42 (Ovarian Carcinoma); assay: as above
Outline: as §1

[4] = system: PANC-03-27 (Pancreatic Carcinoma); assay: as above
Outline: as §1

[5] = system: REH (B-Lymphoblastic Leukemia); assay: as above
Outline: as §1

LN-229 (Glioblastoma) = assay: as above
Outline: as §1

[6] = system: CAL-120 (Breast Carcinoma); assay: as above
Outline: as §1

[7] = system: HSC-39 (Gastric Carcinoma); assay: as above
Outline: as §1

[8] = system: LB996-RCC (Kidney Carcinoma); assay: as above
Outline: as §1

[9] = system: OPM-2 (Plasma Cell Myeloma); assay: as above
Outline: as §1

[10] = system: KE-37 (T-Lymphoblastic Leukemia); assay: as above
Outline: as §1

[11] = system: SU-DHL-10 (B-Cell Non-Hodgkin's Lymphoma); assay: as above
Outline: as §1

[12] = system: SK-PN-DW (Other Solid Carcinomas); assay: as above
Outline: as §1

[13] = system: COLO-680N (Esophageal Squamous Cell Carcinoma); assay: as above
Outline: as §1

[14] = system: HEC-1 (Endometrial Carcinoma); assay: as above
Outline: as §1

WM793B (Melanoma) = assay: as above
Outline: as §1

[15] = system: PC-3_[JPC-3] (Lung Adenocarcinoma); assay: combination Emax (second highest fraction inhibited in the dose matrix, 72 h); higher = more inhibition; extreme values may be limits of the assay
Outline: as §1

[16] = system: CAL-120 (Breast Carcinoma); assay: as above
Outline: as §1

[17] = system: 23132-87 (Gastric Carcinoma); assay: as above
Outline: as §1
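Wherever Bliss excess, mean over the matrix is given: after 72 h of two-drug dosing.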

SMILES | Bliss excess (SF268 (Low Grade Glioma)) | Bliss excess [1] | Bliss excess [2] | Bliss excess [3] | Bliss excess [4] | Bliss excess [5] | Bliss excess (LN-229 (Glioblastoma)) | Bliss excess [6] | Bliss excess [7] | Bliss excess [8] | Bliss excess [9] | Bliss excess [10] | Bliss excess [11] | Bliss excess [12] | Bliss excess [13] | Bliss excess [14] | Bliss excess (WM793B (Melanoma)) | combination Emax [15] | combination Emax [16] | combination Emax [17]
Cn1cnc2c(F)c(Nc3ccc(Br)cc3Cl)c(C(=O)NOCCO)cc21 [Selumetinib] + CC(C)n1c(=O)n(C)c2cnc3cc(F)c(-c4ccc(OCCCN5CCCCC5)nc4)cc3c21 [AZD1390] (first compound max 10 µM, 7x7, partner max 0.3 µM) | -0.0693 | -0.004 | -0.0445 | -0.0392 | 0.01 | -0.0323 | -0.0563 | -0.0388 | 0.0253 | -0.0262 | -0.0153 | 0.0255 | -0.0183 | -0.0289 | -0.0022 | -0.0412 | -0.0211 | 0.159 | 0.112 | 0.0937
Cn1cnc2c(F)c(Nc3ccc(Br)cc3Cl)c(C(=O)NOCCO)cc21 [Selumetinib] + CCN(CCO)CCCOc1ccc2c(Nc3cc(CC(=O)Nc4cccc(F)c4)[nH]n3)ncnc2c1 [AZD2811] (first compound max 10 µM, 7x7, partner max 1 µM) | -0.027 | -0.026 | -0.0748 | -0.011 | 0.0374 | -0.0464 | -0.0303 | -0.0065 | -0.0355 | -0.0359 | 0.0243 | -0.0047 | -0.0915 | -0.0744 | -0.0324 | -0.0402 | -0.0465 | 0.189 | 0.188 | 0.104
Cn1cnc2c(F)c(Nc3ccc(Br)cc3Cl)c(C(=O)NOCCO)cc21 [Selumetinib] + C[C@@H]1COCCN1C2=NC(=NC(=C2)C3(CC3)[S@](=N)(=O)C)C4=C5C=CNC5=NC=C4 [AZD6738] (first compound max 10 µM, 7x7, partner max 10 µM) | -0.0382 | 0.0102 | -0.0671 | -0.0257 | -0.0117 | -0.0612 | 0.0078 | 0.0117 | -0.0391 | -0.0871 | -0.0263 | 0.0087 | 0.0181 | -0.0011 | -0.0258 | -0.0317 | -0.0447 | 0.309 | 0.436 | 0.429
CC(=O)Nc1cccc(-n2c(=O)n(C3CC3)c(=O)c3c(Nc4ccc(I)cc4F)n(C)c(=O)c(C)c32)c1 [Trametinib] + Cc1nc(-c2cn3c(n2)-c2ccc(-c4cnn(C(C)(C)C(N)=O)c4)cc2OCC3)n(C(C)C)n1 [Taselisib] (first compound max 1 µM, 7x7, partner max 10 µM) | 0.0152 | 0.213 | 0.166 | 0.109 | 0.156 | 0.0939 | 0.19 | 0.0676 | 0.184 | 0.0519 | 0.165 | 0.0968 | 0.0528 | -0.0286 | 0.063 | 0.11 | 0.0203 | 0.882 | 0.564 | 0.636
CC1(C)CCC(CN2CCN(c3ccc(C(=O)NS(=O)(=O)c4ccc(NCC5CCOCC5)c([N+](=O)[O-])c4)c(Oc4cnc5[nH]ccc5c4)c3)CC2)=C(c2ccc(Cl)cc2)C1 [Venetoclax] + C1CN(CCC1(C(=O)N[C@@H](CCO)C2=CC=C(C=C2)Cl)N)C3=NC=NC4=C3C=CN4 [Capivasertib] (first compound max 1 µM, 7x7, partner max 3 µM) | -0.0095 | -0.0382 | -0.0399 | -0.0539 | -0.0881 | 0.0111 | -0.0394 | -0.0198 | -0.0104 | -0.0573 | 0.0534 | 0.012 | -0.0078 | -0.0892 | -0.0482 | -0.0465 | -0.029 | 0.168 | 0.227 | 0.0322
CC1(C)CCC(CN2CCN(c3ccc(C(=O)NS(=O)(=O)c4ccc(NCC5CCOCC5)c([N+](=O)[O-])c4)c(Oc4cnc5[nH]ccc5c4)c3)CC2)=C(c2ccc(Cl)cc2)C1 [Venetoclax] + C=CCn1c(=O)c2cnc(Nc3ccc(N4CCN(C)CC4)cc3)nc2n1-c1cccc(C(C)(C)O)n1 [AZD1775] (first compound max 1 µM, partner max 1 µM) | -0.0218 | -0.0282 | -0.0736 | -0.0283 | 0.035 | 0.0623 | -0.0083 | -0.0309 | 0.0776 | -0.0466 | 0.0966 | 0.0083 | -0.018 | 0.0457 | -0.0402 | -0.0569 | 0.0101 | 0.427 | 0.31 | 0.36
CC1(C)CCC(CN2CCN(c3ccc(C(=O)NS(=O)(=O)c4ccc(NCC5CCOCC5)c([N+](=O)[O-])c4)c(Oc4cnc5[nH]ccc5c4)c3)CC2)=C(c2ccc(Cl)cc2)C1 [Venetoclax] + CCN(CCO)CCCOc1ccc2c(Nc3cc(CC(=O)Nc4cccc(F)c4)[nH]n3)ncnc2c1 [AZD2811] (first compound max 1 µM, 7x7, partner max 1 µM) | 0.0342 | 0.0341 | -0.095 | -0.0059 | -0.028 | 0.18 | -0.014 | -0.014 | 0.0077 | -0.0133 | 0.085 | -0.0266 | -0.0844 | -0.0703 | -0.0166 | -0.0262 | 0.0206 | 0.182 | 0.153 | 0.152
CC1(C)CCC(CN2CCN(c3ccc(C(=O)NS(=O)(=O)c4ccc(NCC5CCOCC5)c([N+](=O)[O-])c4)c(Oc4cnc5[nH]ccc5c4)c3)CC2)=C(c2ccc(Cl)cc2)C1 [Venetoclax] + CN(C)CCCOc1ccc(-c2ccc3ncc4c(c3c2)n(C2CCOCC2)c(=O)n4C)cn1 [AZD0156] (first compound max 1 µM, 7x7, partner max 1 µM) | 0.0022 | 0.0088 | -0.103 | -0.0402 | -0.0876 | 0.0037 | -0.007 | -0.0307 | 0.015 | -0.0398 | 0.0271 | -0.0036 | -0.0043 | -0.0437 | -0.014 | 0.0064 | -0.0499 | 0.25 | 0.167 | 0.157
CC1(C)CCC(CN2CCN(c3ccc(C(=O)NS(=O)(=O)c4ccc(NCC5CCOCC5)c([N+](=O)[O-])c4)c(Oc4cnc5[nH]ccc5c4)c3)CC2)=C(c2ccc(Cl)cc2)C1 [Venetoclax] + COc1cc(Nc2ncc3c(n2)-c2ccc(Cl)cc2C(c2c(F)cccc2OC)=NC3)ccc1C(=O)O [Alisertib] (first compound max 1 µM, 7x7, partner max 10 µM) | 0.0151 | 0.0252 | -0.0502 | -0.079 | -0.0236 | 0.22 | -0.041 | -0.0182 | -0.103 | -0.0096 | 0.272 | -0.0545 | 0.0409 | -0.127 | -0.0427 | -0.0385 | -0.0223 | 0.686 | 0.384 | 0
CC1(C)CCC(CN2CCN(c3ccc(C(=O)NS(=O)(=O)c4ccc(NCC5CCOCC5)c([N+](=O)[O-])c4)c(Oc4cnc5[nH]ccc5c4)c3)CC2)=C(c2ccc(Cl)cc2)C1 [Venetoclax] + C[C@@H]1COCCN1C2=NC(=NC(=C2)C3(CC3)[S@](=N)(=O)C)C4=C5C=CNC5=NC=C4 [AZD6738] (first compound max 1 µM, 7x7, partner max 10 µM) | -0.0723 | 0.0467 | -0.0438 | -0.016 | -0.0556 | 0.0493 | -0.0601 | -0.0118 | 0.0079 | -0.066 | -0.0462 | 0.0293 | 0.0138 | -0.0045 | -0.0004 | -0.0267 | -0.0044 | 0.442 | 0.384 | 0.433
CC1(C)CCC(CN2CCN(c3ccc(C(=O)NS(=O)(=O)c4ccc(NCC5CCOCC5)c([N+](=O)[O-])c4)c(Oc4cnc5[nH]ccc5c4)c3)CC2)=C(c2ccc(Cl)cc2)C1 [Venetoclax] + C[C@@H](Nc1cc(F)cc(F)c1)c1cc(C(=O)N(C)C)cc2c(=O)cc(N3CCOCC3)oc12 [AZD8186] (first compound max 1 µM, 7x7, partner max 3 µM) | -0.0353 | -0.0291 | -0.0326 | -0.047 | -0.0415 | 0.01 | -0.0267 | -0.0194 | -0.0503 | 0.0035 | -0.0134 | 0.0385 | 0.0052 | -0.0038 | -0.0276 | -0.0336 | -0.016 | 0.298 | 0.12 | 0.0687
CC1(C)CCC(CN2CCN(c3ccc(C(=O)NS(=O)(=O)c4ccc(NCC5CCOCC5)c([N+](=O)[O-])c4)c(Oc4cnc5[nH]ccc5c4)c3)CC2)=C(c2ccc(Cl)cc2)C1 [Venetoclax] + Cc1cc2ncnn2cc1Nc1ncc2c(n1)n(C1CCOCC1)c(=O)n2C [AZD7648] (first compound max 1 µM, 7x7, partner max 10 µM) | -0.0146 | -0.0241 | -0.0445 | -0.0381 | -0.043 | 0.0108 | -0.0174 | -0.0338 | -0.0289 | -0.0258 | -0.0263 | 0.0325 | -0.0139 | -0.054 | -0.0293 | -0.0286 | 0.0156 | 0.297 | 0.125 | 0.152
CC1(C)CCC(CN2CCN(c3ccc(C(=O)NS(=O)(=O)c4ccc(NCC5CCOCC5)c([N+](=O)[O-])c4)c(Oc4cnc5[nH]ccc5c4)c3)CC2)=C(c2ccc(Cl)cc2)C1 [Venetoclax] + Cn1cnc2c(F)c(Nc3ccc(Br)cc3Cl)c(C(=O)NOCCO)cc21 [Selumetinib] (first compound max 1 µM, 7x7, partner max 3 µM) | -0.0355 | 0.0212 | -0.0715 | -0.0283 | 0.0047 | -0.0467 | -0.0372 | -0.0174 | -0.048 | -0.0209 | -0.0093 | -0.0013 | -0.0123 | -0.0308 | -0.0243 | -0.0315 | -0.0191 | 0.173 | 0.106 | 0.0843
